According to patent publication US5380668A (University of Utah Research Foundation, priority 1993, dated 1995):
Where a SMILES comes first, the peptide text is derived from it. [ ]: non-standard residue; d: D form. βAla = NCCC(=O)O

Each molecule was assayed on second monoclonal antibody against hCG (assay: not given). Settings: not given.

Krel (relative binding affinity) | Molecule
1.6 | C[C@H](NC(=O)[C@H](CO)NC(=O)CNC(=O)[C@H](CO)NC(=O)CN)C(=O)NCC(=O)N1CCC[C@H]1C(=O)N[C@@H](CCCNC(=N)N)C(=O)N[C@@H](Cc1ccc(O)cc1)C(=O)N[C@@H](CC(N)=O)C(=O)N[C@@H](Cc1ccccc1)C(=O)NCC(=O)NCCC(=O)O [SEQ ID NO: 21, Gly--Ser--Gly--Ser--Ala--Gly--Pro--Arg--Tyr--Asn--Phe--Gly--βAla] (H-GSGSAGPRYNFG[βAla]-OH)
1.3 | CC[C@H](C)[C@H](NC(=O)[C@@H]1CCCN1C(=O)CNC(=O)[C@H](C)NC(=O)[C@H](CO)NC(=O)CNC(=O)[C@H](CO)NC(=O)CN)C(=O)N[C@@H](Cc1ccc(O)cc1)C(=O)N[C@@H](CC(=O)O)C(=O)N[C@@H](Cc1ccccc1)C(=O)NCC(=O)NCCC(=O)O [SEQ ID NO: 22, Gly--Ser--Gly--Ser--Ala--Gly--Pro--Ile--Tyr--Asp--Phe--Gly--βAla] (H-GSGSAGPIYDFG[βAla]-OH)
2.0 | CC(C)[C@H](NC(=O)[C@@H]1CCCN1C(=O)CNC(=O)[C@H](C)NC(=O)[C@H](CO)NC(=O)CNC(=O)[C@H](CO)NC(=O)CN)C(=O)N[C@@H](Cc1ccc(O)cc1)C(=O)N[C@@H](CO)C(=O)N[C@@H](Cc1ccccc1)C(=O)NCC(=O)NCCC(=O)O [SEQ ID NO: 20, Gly--Ser--Gly--Ser--Ala--Gly--Pro--Val--Tyr--Ser--Phe--Gly--βAla] (H-GSGSAGPVYSFG[βAla]-OH)
1.0 | CSCC[C@H](NC(=O)[C@H](Cc1ccc(O)cc1)NC(=O)[C@H](CCC(N)=O)NC(=O)[C@@H]1CCCN1C(=O)CNC(=O)[C@H](C)NC(=O)[C@H](CO)NC(=O)CNC(=O)[C@H](CO)NC(=O)CN)C(=O)N[C@@H](Cc1ccccc1)C(=O)NCC(=O)NCCC(=O)O [SEQ ID NO: 23, Gly--Ser--Gly--Ser--Ala--Gly--Pro--Gln--Tyr--Met--Phe--Gly--βAla] (H-GSGSAGPQYMFG[βAla]-OH)
6.6 | CC[C@H](C)[C@H](NC(=O)[C@@H]1CCCN1C(=O)CNC(=O)[C@H](C)NC(=O)[C@H](CO)NC(=O)CNC(=O)[C@H](CO)NC(=O)CN)C(=O)N[C@@H](Cc1ccc(O)cc1)C(=O)N[C@H](C(=O)N[C@@H](Cc1ccccc1)C(=O)NCC(=O)NCCC(=O)O)C(C)C [SEQ ID NO: 19, Gly--Ser--Gly--Ser--Ala--Gly--Pro--Ile--Tyr--Val--Phe--Gly--βAla] (H-GSGSAGPIYVFG[βAla]-OH)

These molecules were tested on anti-hCG monoclonal antibody directed against a portion of the β-subunit of hCG (assay: EIA binding of BSA-conjugated peptide with anti-hCG monoclonal antibody). Settings: peptide conjugated to BSA, absorbed on 96-well plate; antibody overnight at 4° C; alkaline phosphatase labeled protein A.
Description: The peptide was conjugated through its thiol group to BSA using a heterobifunctional cross-linking reagent (succinimidyl 4-(N-maleimidomethyl)cyclohexane-1-carboxylate). The conjugates were first absorbed on the wells of a ninety-six well plate. Nonspecific binding sites on the surface was masked by unlabeled BSA. […] Alkaline phosphatase labeled protein A was used for the color development.

binding with anti-hCG antibody (EIA response) | Molecule
positive results | H2 N-Gly-Gly-Arg-Leu-Pro-Gly-Pro-Ser-Asp-Cys-Gly-COOH (H-GGRLPGPSDCG-OH) [EXAMPLE I]
